Data published in the supplement of paper PMC10307832.

Legend:
Assay in all cases: relative viability (nuclei count vs DMSO), 5 days (fraction); higher = more cells survive
[1] = compound: CN1C=C(C2=CC=CC=C21)/C=C\3/C4=C(C=CC=N4)NC3=O + COc1cc2c(Oc3ccc(NC(=O)C4(C(=O)Nc5ccc(F)cc5)CC4)cc3F)ccnc2cc1OCCCN1CCOCC1 [Foretinib] (partner 0.25 µM)
Summary of the method: (§1)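 Relative viability equals treated-well nuclei counts divided by vehicle-well nuclei counts. Counts came from 4× images of lung cancer cell lines grown in 1536-well plates for 5 days after pin-tool dosing on the day after seeding. Dosing used one drug alone or a fixed anchor-drug dose plus five library-drug doses (not always all listed) in √10 steps, and values are medians of duplicate plates.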

[2] = compound: CC(=O)Nc1cccc(-n2c(=O)n(C3CC3)c(=O)c3c(Nc4ccc(I)cc4F)n(C)c(=O)c(C)c32)c1 [Trametinib] + Cc1nc(Nc2ncc(C(=O)Nc3c(C)cccc3Cl)s2)cc(N2CCN(CCO)CC2)n1 [Dasatinib] (partner 0.075 µM)
Summary of the method: as §1

[3] = compound: CN1C=C(C2=CC=CC=C21)/C=C\3/C4=C(C=CC=N4)NC3=O + CC(=O)c1c(C)c2cnc(Nc3ccc(N4CCNCC4)cn3)nc2n(C2CCCC2)c1=O [Palbociclib] (partner 0.5 µM)
Summary of the method: as §1

[4] = compound: CN1C=C(C2=CC=CC=C21)/C=C\3/C4=C(C=CC=N4)NC3=O + CC1(C)CCC(c2ccc(Cl)cc2)=C(CN2CCN(c3ccc(C(=O)NS(=O)(=O)c4ccc(N[C@H](CCN5CCOCC5)CSc5ccccc5)c(S(=O)(=O)C(F)(F)F)c4)cc3)CC2)C1 [Navitoclax] (partner 0.5 µM)
Summary of the method: as §1

PC-14 was tested, and the relative viability ([1]; first compound 0.02 µM) was 0.993, the relative viability ([1]; first compound 0.06325 µM) was 0.975 and the relative viability ([1]; first compound 0.2 µM) was 1.04. It also gave a relative viability ([1]; first compound 0.6325 µM) of 0.959, a relative viability ([1]; first compound 2 µM) of 1.01 and a relative viability ([2]; first compound 0.0025 µM) of 0.265. It also gave a relative viability ([2]; first compound 0.007906 µM) of 0.234, a relative viability ([2]; first compound 0.025 µM) of 0.266 and a relative viability ([2]; first compound 0.07906 µM) of 0.13. It also gave a relative viability ([2]; first compound 0.25 µM) of 0.0632, a relative viability ([3]; first compound 0.02 µM) of 0.539 and a relative viability ([3]; first compound 0.06325 µM) of 0.536. The relative viability ([3]; first compound 0.2 µM) was 0.55, the relative viability ([3]; first compound 0.6325 µM) was 0.617 and the relative viability ([3]; first compound 2 µM) was 0.545. The relative viability ([4]; first compound 0.02 µM) was 1.05, the relative viability ([4]; first compound 0.06325 µM) was 0.985 and the relative viability ([4]; first compound 0.2 µM) was 1.14. For the same cell line, the relative viability ([4]; first compound 0.6325 µM) was 0.971 and the relative viability ([4]; first compound 2 µM) was 0.989.

Cell Line HCC-78 has a relative viability ([1]; first compound 0.02 µM) of 0.545, a relative viability ([1]; first compound 0.06325 µM) of 0.554 and a relative viability ([1]; first compound 0.6325 µM) of 0.509. It also gave a relative viability ([1]; first compound 2 µM) of 0.552, a relative viability ([2]; first compound 0.0025 µM) of 0.359 and a relative viability ([2]; first compound 0.007906 µM) of 0.265. For the same cell line, the relative viability ([2]; first compound 0.025 µM) was 0.23, the relative viability ([2]; first compound 0.07906 µM) was 0.294 and the relative viability ([2]; first compound 0.25 µM) was 0.25. The relative viability ([3]; first compound 0.02 µM) was 0.356, the relative viability ([3]; first compound 0.06325 µM) was 0.426 and the relative viability ([3]; first compound 0.2 µM) was 0.364. For the same cell line, the relative viability ([3]; first compound 0.6325 µM) was 0.48, the relative viability ([3]; first compound 2 µM) was 0.437 and the relative viability ([4]; first compound 0.02 µM) was 0.692. The relative viability ([4]; first compound 0.06325 µM) was 0.71, the relative viability ([4]; first compound 0.2 µM) was 0.589 and the relative viability ([4]; first compound 0.6325 µM) was 0.778. For the same cell line, the relative viability ([4]; first compound 2 µM) was 0.758.

Cell Line NCI-H1666 has a relative viability ([1]; first compound 0.02 µM) of 0.972, a relative viability ([1]; first compound 0.06325 µM) of 0.991 and a relative viability ([1]; first compound 0.2 µM) of 0.938. For the same cell line, the relative viability ([1]; first compound 0.6325 µM) was 0.879, the relative viability ([1]; first compound 2 µM) was 1.02 and the relative viability ([2]; first compound 0.0025 µM) was 0.812. The relative viability ([2]; first compound 0.007906 µM) was 0.841, the relative viability ([2]; first compound 0.025 µM) was 0.755 and the relative viability ([2]; first compound 0.07906 µM) was 0.666. It also gave a relative viability ([2]; first compound 0.25 µM) of 0.506, a relative viability ([3]; first compound 0.02 µM) of 0.604 and a relative viability ([3]; first compound 0.06325 µM) of 0.62. For the same cell line, the relative viability ([3]; first compound 0.2 µM) was 0.634, the relative viability ([3]; first compound 0.6325 µM) was 0.574 and the relative viability ([3]; first compound 2 µM) was 0.632. The relative viability ([4]; first compound 0.02 µM) was 1.19, the relative viability ([4]; first compound 0.06325 µM) was 0.883 and the relative viability ([4]; first compound 0.2 µM) was 0.879. The relative viability ([4]; first compound 0.6325 µM) was 0.761 and the relative viability ([4]; first compound 2 µM) was 0.542.

With COR-L 105 the relative viability ([1]; first compound 0.02 µM) was 1.09, the relative viability ([1]; first compound 0.06325 µM) was 0.993 and the relative viability ([1]; first compound 0.2 µM) was 0.834. The relative viability ([1]; first compound 0.6325 µM) was 0.957, the relative viability ([1]; first compound 2 µM) was 0.952 and the relative viability ([2]; first compound 0.0025 µM) was 0.319. The relative viability ([2]; first compound 0.007906 µM) was 0.289, the relative viability ([2]; first compound 0.025 µM) was 0.194 and the relative viability ([2]; first compound 0.07906 µM) was 0.153. The relative viability ([2]; first compound 0.25 µM) was 0.17, the relative viability ([3]; first compound 0.02 µM) was 0.428 and the relative viability ([3]; first compound 0.06325 µM) was 0.418. The relative viability ([3]; first compound 0.2 µM) was 0.419, the relative viability ([3]; first compound 0.6325 µM) was 0.373 and the relative viability ([3]; first compound 2 µM) was 0.497. For the same cell line, the relative viability ([4]; first compound 0.02 µM) was 0.552, the relative viability ([4]; first compound 0.06325 µM) was 0.563 and the relative viability ([4]; first compound 0.2 µM) was 0.711. It also gave a relative viability ([4]; first compound 0.6325 µM) of 0.727 and a relative viability ([4]; first compound 2 µM) of 0.873.

LU99A was tested, and the relative viability ([1]; first compound 0.02 µM) was 0.637, the relative viability ([1]; first compound 0.06325 µM) was 0.699 and the relative viability ([1]; first compound 0.2 µM) was 0.759. For the same cell line, the relative viability ([1]; first compound 0.6325 µM) was 0.845, the relative viability ([1]; first compound 2 µM) was 0.835 and the relative viability ([2]; first compound 0.0025 µM) was 0.529. It also gave a relative viability ([2]; first compound 0.007906 µM) of 0.535, a relative viability ([2]; first compound 0.025 µM) of 0.376 and a relative viability ([2]; first compound 0.07906 µM) of 0.363. It also gave a relative viability ([2]; first compound 0.25 µM) of 0.317, a relative viability ([3]; first compound 0.02 µM) of 0.374 and a relative viability ([3]; first compound 0.06325 µM) of 0.417. For the same cell line, the relative viability ([3]; first compound 0.2 µM) was 0.393, the relative viability ([3]; first compound 0.6325 µM) was 0.381 and the relative viability ([3]; first compound 2 µM) was 0.432. It also gave a relative viability ([4]; first compound 0.02 µM) of 0.86, a relative viability ([4]; first compound 0.06325 µM) of 0.849 and a relative viability ([4]; first compound 0.2 µM) of 0.857. For the same cell line, the relative viability ([4]; first compound 0.6325 µM) was 0.865 and the relative viability ([4]; first compound 2 µM) was 0.79.

201T gave a relative viability ([1]; first compound 0.02 µM) of 1.27, a relative viability ([1]; first compound 0.06325 µM) of 1 and a relative viability ([1]; first compound 0.2 µM) of 0.983. For the same cell line, the relative viability ([1]; first compound 0.6325 µM) was 0.773, the relative viability ([1]; first compound 2 µM) was 0.713 and the relative viability ([2]; first compound 0.0025 µM) was 0.555. The relative viability ([2]; first compound 0.007906 µM) was 0.59, the relative viability ([2]; first compound 0.025 µM) was 0.579 and the relative viability ([2]; first compound 0.07906 µM) was 0.521. It also gave a relative viability ([2]; first compound 0.25 µM) of 0.484, a relative viability ([3]; first compound 0.02 µM) of 0.321 and a relative viability ([3]; first compound 0.06325 µM) of 0.359. The relative viability ([3]; first compound 0.2 µM) was 0.377, the relative viability ([3]; first compound 0.6325 µM) was 0.35 and the relative viability ([3]; first compound 2 µM) was 0.323. The relative viability ([4]; first compound 0.02 µM) was 1.22, the relative viability ([4]; first compound 0.06325 µM) was 1.21 and the relative viability ([4]; first compound 0.2 µM) was 1.24. For the same cell line, the relative viability ([4]; first compound 0.6325 µM) was 1.27 and the relative viability ([4]; first compound 2 µM) was 1.23.

For HCC-15, the relative viability ([1]; first compound 0.02 µM) was 0.947, the relative viability ([1]; first compound 0.06325 µM) was 0.935 and the relative viability ([1]; first compound 0.2 µM) was 1.03. For the same cell line, the relative viability ([1]; first compound 0.6325 µM) was 1.01, the relative viability ([1]; first compound 2 µM) was 0.998 and the relative viability ([2]; first compound 0.0025 µM) was 0.287. The relative viability ([2]; first compound 0.007906 µM) was 0.214, the relative viability ([2]; first compound 0.025 µM) was 0.163 and the relative viability ([2]; first compound 0.07906 µM) was 0.135. It also gave a relative viability ([2]; first compound 0.25 µM) of 0.121, a relative viability ([3]; first compound 0.02 µM) of 0.708 and a relative viability ([3]; first compound 0.06325 µM) of 0.733. It also gave a relative viability ([3]; first compound 0.2 µM) of 0.724, a relative viability ([3]; first compound 0.6325 µM) of 0.685 and a relative viability ([3]; first compound 2 µM) of 0.746. For the same cell line, the relative viability ([4]; first compound 0.02 µM) was 0.763, the relative viability ([4]; first compound 0.06325 µM) was 0.689 and the relative viability ([4]; first compound 0.2 µM) was 0.736. The relative viability ([4]; first compound 0.6325 µM) was 0.559 and the relative viability ([4]; first compound 2 µM) was 0.665.
